Target: hFXR (Homo sapiens (Human), UniProt Q96RI1)
Experiment: In Vitro FXR Assay (TK)
Format: cell-based
Conditions: CV-1 cells transfected with hFXR, hRXR, TK-ECRE-luc and pCMX-YFP; incubated 18 hrs; luminescence; maximum efficacy <25% of the Fexarmine control classified as '+'
Procedure: Example B-1: In Vitro FXR Assay (TK)
CV-1 cells were seeded at a density of 2,000,000 cells in a T175 flask with DMEM+10% charcoal double-stripped FBS and incubated at 37° C. in 5% CO2 for 18 h (O/N).
After 18 h of incubation, the medium in the T175 flask was changed with fresh DMEM+10% charcoal super-stripped serum. In a polypropylene tube, 2500 μL OptiMEM (Life Technologies, Cat #31985-062) was combined with expression plasmids for hFXR, hRXR, TK-ECRE-luc and pCMX-YFP. The tube was then briefly vortexed and incubated at room temperature for 5 minutes. Transfection reagent (X-tremeGENE HP from Roche, Cat #06 366 236 001) was added to the OptiMEM/plasmid mixture vortexed and incubated at room temperature for 20 minutes. Following incubation, the transfection reagent/DNA mixture complex was added to cells in the T175 flask and the cells were incubated at 37° C. in 5% CO2 for 18 h (O/N).
Compounds were serially diluted in DMSO and added to transfected CV-1 cells. The cells were then incubated for 18 hrs. The next day cells were lysed and examined for luminescence.

Chain of hFXR (Q96RI1 whole entry): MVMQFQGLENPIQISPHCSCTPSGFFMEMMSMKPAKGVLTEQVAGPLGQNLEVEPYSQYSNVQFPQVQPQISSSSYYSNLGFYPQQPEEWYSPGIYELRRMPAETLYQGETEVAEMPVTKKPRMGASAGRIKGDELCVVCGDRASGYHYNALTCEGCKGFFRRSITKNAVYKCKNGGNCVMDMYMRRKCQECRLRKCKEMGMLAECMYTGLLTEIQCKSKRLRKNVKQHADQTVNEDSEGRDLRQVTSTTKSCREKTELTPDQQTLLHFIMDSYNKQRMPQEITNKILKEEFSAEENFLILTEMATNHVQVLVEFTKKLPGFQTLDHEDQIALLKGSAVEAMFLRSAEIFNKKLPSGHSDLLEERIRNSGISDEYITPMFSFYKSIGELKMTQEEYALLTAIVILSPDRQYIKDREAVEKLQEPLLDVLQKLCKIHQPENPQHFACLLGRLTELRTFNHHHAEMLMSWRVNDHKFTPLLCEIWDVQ
Chain of hFXR (P19793 whole entry partner): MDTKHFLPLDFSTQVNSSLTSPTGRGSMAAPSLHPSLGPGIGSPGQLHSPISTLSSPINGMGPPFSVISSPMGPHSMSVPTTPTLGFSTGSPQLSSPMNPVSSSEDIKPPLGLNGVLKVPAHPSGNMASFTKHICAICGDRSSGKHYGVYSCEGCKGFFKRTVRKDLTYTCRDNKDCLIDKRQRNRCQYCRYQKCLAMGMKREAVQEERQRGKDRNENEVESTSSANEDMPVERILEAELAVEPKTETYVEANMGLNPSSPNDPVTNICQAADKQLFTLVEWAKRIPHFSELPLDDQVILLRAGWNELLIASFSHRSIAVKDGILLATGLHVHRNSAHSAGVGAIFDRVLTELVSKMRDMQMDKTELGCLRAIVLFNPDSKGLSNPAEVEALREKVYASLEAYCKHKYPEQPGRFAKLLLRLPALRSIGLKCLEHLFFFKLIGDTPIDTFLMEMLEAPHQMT

Row | Compound | EC50 [nM]
1 | COc1ccc([C@H]2CC[C@H](CN(c3cccc(-c4cnn(CCO)c4)c3)C(=O)[C@H]3CC[C@H](O)CC3)CC2)cc1C [Compound 3.05, trans-4-Hydroxy-N-(3-(1-(2-hydroxyethyl)-1H-pyrazol-4-yl)phenyl)-N-((trans-4-(4-methoxy-3-methylphenyl)cyclohexyl)methyl)cyclohexanecarboxamide] | ≥ 1000
2 | COc1ccc([C@H]2CC[C@H](CN(c3cccc(-c4cnn(C5CC5)c4)c3)C(=O)[C@H]3CC[C@H](O)CC3)CC2)nc1C#N [Compound 5.05, trans-N-((trans-4-(6-Cyano-5-methoxypyridin-2-yl)cyclohexyl)methyl)-N-(3-(1-cyclopropyl-1H-pyrazol-4-yl)phenyl)-4-hydroxycyclohexanecarboxamide] | ≤ 250
3 | COc1ccc([C@H]2CC[C@H](CN(c3cccc(-c4ccn(C)n4)c3)C(=O)[C@H]3CC[C@H](O)CC3)CC2)cc1C [Compound 3.01, trans-4-Hydroxy-N-((trans-4-(4-methoxy-3-methylphenyl)cyclohexyl)methyl)-N-(3-(1-methyl-1H-pyrazol-3-yl)phenyl)cyclohexanecarboxamide] | ≥ 1000
4 | COc1ccc(C23CCC(CN(c4cccc(-c5cnn(C6CC6)c5)c4)C(=O)[C@H]4CC[C@H](O)CC4)(CC2)CC3)cc1C [Compound 6, trans-N-(3-(1-Cyclopropyl-1H-pyrazol-4-yl)phenyl)-4-hydroxy-N-((4-(4-methoxy-3-methylphenyl)bicyclo[2.2.2]octan-1-yl)methyl)cyclohexanecarboxamide] | ≤ 250
5 | COc1ccc([C@H]2CC[C@H](CN(c3cccc(C#Cc4cn[nH]c4)c3)C(=O)[C@H]3CC[C@H](O)CC3)CC2)cc1C [Compound 4.01, trans-N-(3-((1H-Pyrazol-4-yl)ethynyl)phenyl)-4-hydroxy-N-((trans-4-(4-methoxy-3-methylphenyl)cyclohexyl)methyl)cyclohexanecarboxamide] | ≤ 250
6 | CCCn1cc(-c2cccc(N(C[C@H]3CC[C@H](c4ccc(OC)c(C)c4)CC3)C(=O)[C@H]3CC[C@H](O)CC3)c2)cn1 [Compound 3.04, trans-4-Hydroxy-N-((trans-4-(4-methoxy-3-methylphenyl)cyclohexyl)methyl)-N-(3-(1-propyl-1H-pyrazol-4-yl)phenyl)cyclohexanecarboxamide] | ≤ 250
7 | COc1ncc([C@H]2CC[C@H](CN(c3cccc(-c4cnn(C5CC5)c4)c3)C(=O)[C@H]3CC[C@H](O)CC3)CC2)cc1C [Compound 5.12, trans-N-(3-(1-Cyclopropyl-1H-pyrazol-4-yl)phenyl)-4-hydroxy-N-((trans-4-(6-methoxy-5-methylpyridin-3-yl)cyclohexyl)methyl)cyclohexanecarboxamide] | ≤ 250
8 | COc1ccc([C@H]2CC[C@H](CN(c3cccc(-c4cnn(C(C)C)c4)c3)C(=O)[C@H]3CC[C@H](N)CC3)CC2)cc1C [Compound 7, trans-4-Amino-N-(3-(1-isopropyl-1H-pyrazol-4-yl)phenyl)-N-((trans-4-(4-methoxy-3-methylphenyl)cyclohexyl)methyl)cyclohexanecarboxamide] | ≥ 1000
9 | COc1ccc([C@H]2CC[C@H](CN(c3cccc(-c4cnn(C5CCC5)c4)c3)C(=O)[C@H]3CC[C@H](O)CC3)CC2)cc1C [Compound 3.08, trans-N-(3-(1-Cyclobutyl-1H-pyrazol-4-yl)phenyl)-4-hydroxy-N-((trans-4-(4-methoxy-3-methylphenyl)cyclohexyl)methyl)cyclohexanecarboxamide] | ≤ 250
10 | COc1ccc([C@H]2CC[C@H](CN(c3cc(-c4cnn(C5CC5)c4)ccn3)C(=O)[C@H]3CC[C@H](O)CC3)CC2)nc1C#N [Compound 5.22, trans-N-((trans-4-(6-Cyano-5-methoxypyridin-2-yl)cyclohexyl)methyl)-N-(4-(1-cyclopropyl-1H-pyrazol-4-yl)pyridin-2-yl)-4-hydroxycyclohexanecarboxamide] | 250 to 1000
11 | COc1ccc([C@H]2CC[C@H](CN(c3cccc(-c4cnn(C(C)C)c4)c3)C(=O)[C@H]3CC[C@H](O)CC3)CC2)nc1C#N [Compound 5.23, trans-N-((trans-4-(6-Cyano-5-methoxypyridin-2-yl)cyclohexyl)methyl)-4-hydroxy-N-(3-(1-isopropyl-1H-pyrazol-4-yl)phenyl)cyclohexanecarboxamide] | ≤ 250
12 | Cc1cc([C@H]2CC[C@H](CN(c3cccc(-c4cnn(C5CC5)c4)c3)C(=O)[C@H]3CC[C@H](O)CC3)CC2)ccc1O [Compound 8, trans-N-(3-(1-Cyclopropyl-1H-pyrazol-4-yl)phenyl)-4-hydroxy-N-((trans-4-(4-hydroxy-3-methylphenyl)cyclohexyl)methyl)cyclohexanecarboxamide] | 250 to 1000
13 | CCn1cc([C@H]2CC[C@H](CN(c3cccc(-c4cnn(C5CC5)c4)c3)C(=O)[C@H]3CC[C@H](O)CC3)CC2)cn1 [Compound 5.16, trans-N-(3-(1-Cyclopropyl-1H-pyrazol-4-yl)phenyl)-N-((trans-4-(1-ethyl-1H-pyrazol-4-yl)cyclohexyl)methyl)-4-hydroxycyclohexanecarboxamide] | 250 to 1000
14 | COc1ccc([C@H]2CC[C@H](CN(c3cccc(-c4cnn(C5CCC5)c4)c3)C(=O)[C@H]3CC[C@H](O)CC3)CC2)nc1C [Compound 5.17, trans-N-(3-(1-Cyclobutyl-1H-pyrazol-4-yl)phenyl)-4-hydroxy-N-((trans-4-(5-methoxy-6-methylpyridin-2-yl)cyclohexyl)methyl)cyclohexanecarboxamide] | ≤ 250
15 | COc1ccc([C@H]2CC[C@H](CN(c3cccc(-c4cnn(C(C)(C)C)c4)c3)C(=O)[C@H]3CC[C@H](O)CC3)CC2)cc1C [Compound 5.08, trans-N-(3-(1-(tert-Butyl)-1H-pyrazol-4-yl)phenyl)-4-hydroxy-N-((trans-4-(4-methoxy-3-methylphenyl)cyclohexyl)methyl)cyclohexanecarboxamide] | ≤ 250
16 | COc1ccc([C@H]2CC[C@H](CN(c3cccc(-c4cnn(CC(F)(F)F)c4)c3)C(=O)[C@H]3CC[C@H](O)CC3)CC2)cc1C [Compound 3.07, trans-4-Hydroxy-N-((trans-4-(4-methoxy-3-methylphenyl)cyclohexyl)methyl)-N-(3-(1-(2,2,2-trifluoroethyl)-1H-pyrazol-4-yl)phenyl)cyclohexanecarboxamide] | ≤ 250
17 | COc1ccc([C@H]2CC[C@H](CN(c3cc(-c4cnn(C5CC5)c4)ccn3)C(=O)[C@H]3CC[C@H](O)CC3)CC2)nc1C [Compound 5.09, trans-N-(4-(1-Cyclopropyl-1H-pyrazol-4-yl)pyridin-2-yl)-4-hydroxy-N-((trans-4-(5-methoxy-6-methylpyridin-2-yl)cyclohexyl)methyl)cyclohexanecarboxamide] | 250 to 1000
18 | COc1ccc([C@H]2CC[C@H](CN(c3cccc(-c4cnn(C(C)C)c4)c3)C(=O)[C@H]3CC[C@](C)(O)CC3)CC2)cc1C [Compound 5.27, (1r,4r)-4-Hydroxy-N-(3-(1-isopropyl-1H-pyrazol-4-yl)phenyl)-N-((trans-4-(4-methoxy-3-methylphenyl)cyclohexyl)methyl)-4-methylcyclohexanecarboxamide] | ≤ 250
19 | COc1ccc(C23CCC(CN(c4cc(-c5cnn(C6CC6)c5)ccn4)C(=O)[C@H]4CC[C@H](O)CC4)(CC2)CC3)cc1C [Compound 2.08, trans-N-(4-(1-Cyclopropyl-1H-pyrazol-4-yl)pyridin-2-yl)-4-hydroxy-N-((4-(4-methoxy-3-methylphenyl)bicyclo[2.2.2]octan-1-yl)methyl)cyclohexanecarboxamide] | ≤ 250
20 | COc1ccc([C@H]2CC[C@H](CN(c3cccc(-c4cnn(CC(F)F)c4)c3)C(=O)[C@H]3CC[C@H](O)CC3)CC2)cc1C [Compound 2.05, trans-N-(3-(1-(2,2-Difluoroethyl)-1H-pyrazol-4-yl)phenyl)-4-hydroxy-N-((trans-4-(4-methoxy-3-methylphenyl)cyclohexyl)methyl)cyclohexanecarboxamide] | ≤ 250
21 | COc1ccc([C@H]2CC[C@H](CN(C(=O)C3CCCCC3)c3cccc(-c4cnn(C5CC5)c4)c3)CC2)cc1C [Compound 5.24, N-(3-(1-Cyclopropyl-1H-pyrazol-4-yl)phenyl)-N-((trans-4-(4-methoxy-3-methylphenyl)cyclohexyl)methyl)cyclohexanecarboxamide] | ≤ 250
22 | COc1ccc([C@H]2CC[C@H](CN(c3cccc(-c4cnn(CC(C)C)c4)c3)C(=O)[C@H]3CC[C@H](O)CC3)CC2)cc1C [Compound 3.03, trans-4-Hydroxy-N-(3-(1-isobutyl-1H-pyrazol-4-yl)phenyl)-N-((trans-4-(4-methoxy-3-methylphenyl)cyclohexyl)methyl)cyclohexanecarboxamide] | ≤ 250
23 | Cn1nc(F)c2cc([C@H]3CC[C@H](CN(c4cccc(-c5cnn(C6CC6)c5)c4)C(=O)[C@H]4CC[C@H](O)CC4)CC3)ccc21 [Compound 5, trans-N-(3-(1-Cyclopropyl-1H-pyrazol-4-yl)phenyl)-N-((trans-4-(3-fluoro-1-methyl-1H-indazol-5-yl)cyclohexyl)methyl)-4-hydroxycyclohexanecarboxamide] | ≤ 250
24 | COc1ncc([C@H]2CC[C@H](CN(c3cccc(-c4cnn(C5CC5)c4)c3)C(=O)[C@H]3CC[C@H](O)CC3)CC2)cc1Cl [Compound 5.10, trans-N-((trans-4-(5-chloro-6-methoxypyridin-3-yl)cyclohexyl)methyl)-N-(3-(1-cyclopropyl-1H-pyrazol-4-yl)phenyl)-4-hydroxycyclohexanecarboxamide] | ≤ 250
